According to publication PMC8160813, “Design, Synthesis, and Evaluation of Dihydropyranopyrazole Derivatives as Novel PDE2 Inhibitors for the Treatment of Alzheimer’s Disease” (Molecules, 2021):

Biological target: T1, PDE2A (catalytic domain, 580–919) (Homo sapiens, UniProt O00408)
T1 construct: made in house; host or cells: E. coli BL21 (CodonPlus)
Assay: In vitro PDE2 enzymatic inhibition assay (3H-cGMP substrate)
Format: biochemical
Conditions: for inhibition at 0.1 µM / inhibition at 0.5 µM / Inhibition Ratio (%) 0.5 μM: PDE2; for inhibition at 0.1 µM: compound at 0.1 μM, read-out: Inhibition Ratio (%) 0.1 μM; for inhibition at 0.5 µM / Inhibition Ratio (%) 0.5 μM: compound at 0.5 μM; for inhibition at 0.5 µM: read-out: Inhibition Ratio (%) 0.5 μM; for IC50: means ± SD of three experiments, 3H-cGMP, 25 °C, 15 min, read-out: IC50 (nM) against PDE2
Procedure: Purification and expression of the recombinant pET15b-PDE2A plasmid (catalytic domain, 580–919) was performed following our previously reported method. The plasmid pET15b-PDE2A (catalytic domain, 580–919) was transferred to thawed competent E. coli BL21 cells (CodonPlus, Agilent Technologies, Santa Clara, CA, USA), which were grown in 2XYT medium with 100 μg/mL ampicillin and 20 μg/mL chloramphenicol at 37 °C until OD600 = 0.6–0.8. Then, 0.1 mM isopropylthiogalactoside was added for induction, and protein expression was induced by continuing to grow the cells at 16 °C for 24 h. After that, bacteria were collected by centrifugation and frozen overnight at −20 °C. The bacteria containing the recombinant plasmid of the target protein were subjected to cell disruption and passed through a Ni-NTA agarose affinity column, Q-Sepharose ion-exchange column and other steps. The purity can be 95% or more, and a typical purification batch produces 10–20 mg of PDE2A protein from 1.0 L of cell culture.
Using the appropriate concentration of ^3H-cGMP as the substrate, different compound solutions were added to the test group, DMSO was added to the negative control and blank control groups, and EHNA was added to the positive control group, followed by protein solution (the proteins were all diluted with Assay Buffer); Assay Buffer was added to the blank group. The enzymatic reaction was performed at room temperature (25 °C) for 15 min, and then, 0.2 M ZnSO4 was added to inactivate PDE2 and to stop the reaction. Then, 0.2 N Ba(OH)2 solution was added to precipitate the reaction product, and unreacted ^3H-cGMP remained in the supernatant. After mixing the system, it was centrifuged. The radioactivity of the supernatant was measured with a liquid scintillation counter, and the inhibitory activity of the compound against PDE2 was calculated. The above test was repeated three times (the IC50 test generally used 9 concentrations, and the single-point test was directly diluted with DMSO to the required concentration).

T1 sequence (O00408 580-919): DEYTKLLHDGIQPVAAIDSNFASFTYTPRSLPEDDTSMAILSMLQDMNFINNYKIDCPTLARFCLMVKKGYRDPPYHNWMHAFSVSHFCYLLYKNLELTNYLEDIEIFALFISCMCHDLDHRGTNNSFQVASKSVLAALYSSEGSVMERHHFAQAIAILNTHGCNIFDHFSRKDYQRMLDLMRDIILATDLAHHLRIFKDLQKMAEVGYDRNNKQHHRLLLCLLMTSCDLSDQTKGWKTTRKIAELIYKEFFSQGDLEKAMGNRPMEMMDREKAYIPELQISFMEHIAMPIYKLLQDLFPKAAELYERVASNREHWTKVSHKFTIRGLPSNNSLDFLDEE

Compound | inhibition at 0.5 µM | also measured
COc1ccc(OCc2ccc(C(F)(F)F)cc2)c(C2C(C#N)=C(N)Oc3[nH]nc(C)c32)c1 (racemic) [Compound 11h, 6-Amino-4-(5-methoxy-2-((4-(trifluoromethyl)benzyl)oxy)phenyl)-3-methyl-1,4-dihydropyrano[2,3-c]pyrazole-5-carbonitrile] | 87.3% | inhibition at 0.1 µM: 63.3%; IC50: 75.5 ± 2 nM
CCCCCC[C@@H]([C@@H](C)O)n1cnc2c(N)ncnc21 (racemic) [EHNA, erythro-9-(2-hydroxy-3-nonyl) adenine, reference compound] | – | IC50: 2460 nM
COc1ccc(OCc2ccc(C(F)(F)F)cc2)c(C2C(C#N)=C(N)Oc3[nH]nc(C)c32)c1 (single isomer, unassigned; (-)) [(−)-11h] | 87.3% | PDE2 inhibitory activity of resolved isomer (in words) (after chiral resolution of 11h): almost inactive
COc1ccc(C2C(C#N)=C(N)Oc3[nH]nc(C)c32)cc1OCc1ccc(Cl)cc1 (centres unmarked) [4a (LZ77), 6-Amino-4-(3-((4-chlorobenzyl)oxy)-4-methoxyphenyl)-3-methyl-1,4-dihydropyrano[2,3-c]pyrazole-5-carbonitrile] | 57.2% | inhibition at 0.1 µM: 18.2%; IC50: 407 ± 37.7 nM
COc1ccc([C@H]2C(C#N)=C(N)Oc3[nH]nc(C)c32)cc1OCc1ccc(Cl)cc1 [(R)-LZ77] | 67.5% | inhibition at 0.1 µM: 30.4%; IC50: 261 ± 11.2 nM
COc1cc(OCc2ccc(C(F)(F)F)cc2)cc(C2C(C#N)=C(N)Oc3[nH]nc(C)c32)c1 (centres unmarked) [Compound 4b, 6-Amino-4-(3-methoxy-5-((4-(trifluoromethyl)benzyl)oxy)phenyl)-3-methyl-1,4-dihydropyrano[2,3-c]pyrazole-5-carbonitrile] | 14.1% | –
COc1cc(OCc2ccc(Cl)cc2)cc(C2C(C#N)=C(N)Oc3[nH]nc(C)c32)c1 (centres unmarked) [Compound 4c, 6-Amino-4-(3-((4-chlorobenzyl)oxy)-5-methoxyphenyl)-3-methyl-1,4-dihydropyrano[2,3-c]pyrazole-5-carbonitrile] | 43.4% | –
COc1ccc(OC(=O)c2ccc(OC(F)(F)F)cc2)c(C2C(C#N)=C(N)Oc3[nH]nc(C)c32)c1 (centres unmarked) [Compound 8a, 2-(6-Amino-5-cyano-3-methyl-1,4-dihydropyrano[2,3-c]pyrazol-4-yl)-4-methoxyphenyl-4-(trifluoromethoxy)benzoate] | 13.4% | –
COc1ccc(OC(=O)c2ccc(C(F)(F)F)cc2)c(C2C(C#N)=C(N)Oc3[nH]nc(C)c32)c1 (centres unmarked) [Compound 8b, 2-(6-Amino-5-cyano-3-methyl-1,4-dihydropyrano[2,3-c]pyrazol-4-yl)-4-methoxyphenyl-4-(trifluoromethyl)benzoate] | 39.1% | –
COc1ccc(OC(=O)CCc2ccc(Cl)cc2)c(C2C(C#N)=C(N)Oc3[nH]nc(C)c32)c1 (centres unmarked) [Compound 8c, 2-(6-Amino-5-cyano-3-methyl-1,4-dihydropyrano[2,3-c]pyrazol-4-yl)-4-methoxyphenyl-3-(4-chlorophenyl)propanoate] | 4.12% | –
COc1ccc(OC(=O)CCCc2ccc(Cl)cc2)c(C2C(C#N)=C(N)Oc3[nH]nc(C)c32)c1 (centres unmarked) [Compound 8d, 2-(6-Amino-5-cyano-3-methyl-1,4-dihydropyrano[2,3-c]pyrazol-4-yl)-4-methoxyphenyl-4-(4-chlorophenyl)butanoate] | 6.12% | –
COc1ccc(COc2cc(OC)ccc2C2C(C#N)=C(N)Oc3[nH]nc(C)c32)cc1 (centres unmarked) [Compound 11a, 6-Amino-4-(4-methoxy-2-((4-methoxybenzyl)oxy)phenyl)-3-methyl-1,4-dihydropyrano[2,3-c]pyrazole-5-carbonitrile] | 27% | –
COc1ccc(C2C(C#N)=C(N)Oc3[nH]nc(C)c32)c(OCc2ccccc2)c1 (centres unmarked) [Compound 11b, 6-Amino-4-(2-(benzyloxy)-4-methoxyphenyl)-3-methyl-1,4-dihydropyrano [2,3-c] pyrazole-5-carbonitrile] | 14.3% | –
COc1ccc(C2C(C#N)=C(N)Oc3[nH]nc(C)c32)c(OCc2ccc(Cl)cc2)c1 (centres unmarked) [Compound 11c, 6-Amino-4-(2-((4-chlorobenzyl)oxy)-4-methoxyphenyl)-3-methyl-1,4-dihydropyrano[2,3-c]pyrazole-5-carbonitrile] | 29% | –
COc1ccc(OCc2ccccc2)c(C2C(C#N)=C(N)Oc3[nH]nc(C)c32)c1 (centres unmarked) [Compound 11d, 6-Amino-4-(2-(benzyloxy)-5-methoxyphenyl)-3-methyl-1,4-dihydropyrano [2,3-c] pyrazole-5-carbonitrile] | 17.7% | –
COc1ccc(COc2ccc(OC)cc2C2C(C#N)=C(N)Oc3[nH]nc(C)c32)cc1 (centres unmarked) [Compound 11e, 6-Amino-4-(5-methoxy-2-((4-methoxybenzyl)oxy)phenyl)-3-methyl-1,4-dihydropyrano[2,3-c]pyrazole-5-carbonitrile] | 48% | inhibition at 0.1 µM: 17.5%; IC50: 458 ± 16.2 nM
COc1ccc(OCc2ccc(Cl)cc2)c(C2C(C#N)=C(N)Oc3[nH]nc(C)c32)c1 (centres unmarked) [Compound 11f, 6-Amino-4-(2-((4-chlorobenzyl)oxy)-5-methoxyphenyl)-3-methyl-1,4-dihydropyrano[2,3-c]pyrazole-5-carbonitrile] | 79.2% | inhibition at 0.1 µM: 48.1%; IC50: 115 ± 1.3 nM
COc1ccc(OCc2ccc(F)cc2)c(C2C(C#N)=C(N)Oc3[nH]nc(C)c32)c1 (centres unmarked) [Compound 11g, 6-Amino-4-(2-((4-fluorobenzyl)oxy)-5-methoxyphenyl)-3-methyl-1,4-dihydropyrano[2,3-c]pyrazole-5-carbonitrile] | 44.4% | inhibition at 0.1 µM: 15.1%; IC50: 807 ± 15.3 nM
COc1ccc(OCc2ccc(OC(F)(F)F)cc2)c(C2C(C#N)=C(N)Oc3[nH]nc(C)c32)c1 (centres unmarked) [Compound 11i, 6-Amino-4-(5-methoxy-2-((4-(trifluoromethoxy)benzyl)oxy)phenyl)-3-methyl-1,4-dihydropyrano[2,3-c]pyrazole-5-carbonitrile] | 48.8% | –
Cc1n[nH]c2c1C(c1cc(C(C)(C)C)ccc1OCc1ccc(C(F)(F)F)cc1)C(C#N)=C(N)O2 (centres unmarked) [Compound 11j, 6-Amino-4-(5-(tert-butyl)-2-((4-(trifluoromethyl)benzyl)oxy)phenyl)-3-methyl-1,4-dihydropyrano[2,3-c]pyrazole-5-carbonitrile] | 0% | Inhibition Ratio (%) 0.5 μM: no inhibition
Cc1ccc(OCc2ccc(C(F)(F)F)cc2)c(C2C(C#N)=C(N)Oc3[nH]nc(C)c32)c1 (centres unmarked) [Compound 11k, 6-Amino-3-methyl-4-(5-methyl-2-((4-(trifluoromethyl)benzyl)oxy)phenyl)-1,4-dihydropyrano[2,3-c]pyrazole-5-carbonitrile] | 72% | inhibition at 0.1 µM: 38.3%; IC50: 154 ± 3.3 nM
Cc1n[nH]c2c1C(c1cc(OCc3ccc(C(F)(F)F)cc3)ccc1OCc1ccc(C(F)(F)F)cc1)C(C#N)=C(N)O2 (centres unmarked) [Compound 11l, 6-Amino-4-(2,5-bis((4-(trifluoromethyl)benzyl)oxy)phenyl)-3-methyl-1,4-dihydropyrano[2,3-c]pyrazole-5-carbonitrile] | 13.4% | –
Cc1n[nH]c2c1C(c1cc(O)ccc1OCc1ccc(C(F)(F)F)cc1)C(C#N)=C(N)O2 (centres unmarked) [Compound 11m, 6-Amino-4-(5-hydroxy-2-((4-(trifluoromethyl)benzyl)oxy)phenyl)-3-methyl-1,4-dihydropyrano[2,3-c]pyrazole-5-carbonitrile] | 0% | Inhibition Ratio (%) 0.5 μM: no inhibition
COc1ccc(OCCc2ccc(C(F)(F)F)cc2)c(C2C(C#N)=C(N)Oc3[nH]nc(C)c32)c1 (centres unmarked) [Compound 11n, 6-Amino-4-(5-methoxy-2-(4-(trifluoromethyl)phenethoxy)phenyl)-3-methyl-1,4-dihydropyrano[2,3-c]pyrazole-5-carbonitrile] | 20.7% | –
COc1ccc(OCCCc2ccc(C(F)(F)F)cc2)c(C2C(C#N)=C(N)Oc3[nH]nc(C)c32)c1 (centres unmarked) [Compound 11o, 6-Amino-4-(5-methoxy-2-(3-(4-(trifluoromethyl)phenyl)propoxy)phenyl)-3-methyl-1,4-dihydropyrano[2,3-c]pyrazole-5-carbonitrile] | 8.2% | –
Cc1n[nH]c2c1C(c1cc(OC(F)(F)F)ccc1OCc1ccc(C(F)(F)F)cc1)C(C#N)=C(N)O2 (centres unmarked) [Compound 11p, 6-Amino-3-methyl-4-(5-(trifluoromethoxy)-2-((4-(trifluoromethyl)benzyl)oxy)phenyl)-1,4-dihydropyrano[2,3-c]pyrazole-5-carbonitrile] | 17.4% | –
Cc1n[nH]c2c1C(c1cc(OC(F)F)ccc1OCc1ccc(C(F)(F)F)cc1)C(C#N)=C(N)O2 (centres unmarked) [Compound 11q, 6-Amino-4-(5-(difluoromethoxy)-2-((4-(trifluoromethyl)benzyl)oxy)phenyl)-3-methyl-1,4-dihydropyrano[2,3-c]pyrazole-5-carbonitrile] | 6.6% | –
